Source: patent publication US11440884B2, “Compounds, salts thereof and methods for treatment of diseases” (ACADIA PHARMACEUTICALS INC., priority 2017, dated 2022)

target: 5-HT2A receptor (Homo sapiens (Human), UniProt P28223); experiment: Receptor Selection and Amplification (R-SAT) functional antagonist assay; settings: not given;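 also: Read-out is β-galactosidase marker gene activity with ONPG substrate, measured after five days of growth in 96-well plates holding the test compound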
Sequence (P28223 whole entry): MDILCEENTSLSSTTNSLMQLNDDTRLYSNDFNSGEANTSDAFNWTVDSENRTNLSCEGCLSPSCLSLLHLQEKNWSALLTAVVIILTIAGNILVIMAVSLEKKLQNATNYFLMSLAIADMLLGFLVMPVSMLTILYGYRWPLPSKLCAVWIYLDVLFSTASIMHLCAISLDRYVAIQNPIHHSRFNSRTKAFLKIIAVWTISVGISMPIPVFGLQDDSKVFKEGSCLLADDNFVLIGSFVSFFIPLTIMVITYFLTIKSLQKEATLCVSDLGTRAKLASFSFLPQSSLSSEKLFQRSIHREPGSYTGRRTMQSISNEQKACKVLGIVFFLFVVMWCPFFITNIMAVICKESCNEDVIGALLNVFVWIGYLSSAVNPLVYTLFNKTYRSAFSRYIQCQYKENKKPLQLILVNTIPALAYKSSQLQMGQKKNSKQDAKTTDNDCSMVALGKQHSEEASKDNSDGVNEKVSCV

SMILES | 5-HT2a pKi | Ki
CCCCOc1ccc(CC(=O)N(Cc2ccc(F)cc2F)C2CCN(C)CC2)cc1.O=C(O)C(F)(F)F [Compound 24, N-(2,4-difluorobenzyl)-2-(4-butoxyphenyl)-N-(1-methylpiperidin-4-yl)acetamide trifluoroacetic acid] | 7.2 | –
CN1CCC(N(Cc2ccc(F)cc2F)C(=O)OCc2ccc(C(C)(F)F)cc2)CC1.O=C(O)C(F)(F)F [Compound 73] | 9.4 | –
Cc1cc(F)ccc1CN(C(=O)OCc1ccc(OC(C)C)cc1)C1CCN(C)CC1.O=C(O)C(F)(F)F [Compound 56, [4-(propan-2-yloxy)phenyl]methyl N-[(4-fluoro-2-methylphenyl)-methyl]-N-(1-methylpiperidin-4-yl)carbamate; trifluoroacetic acid] | 7.8 | –
CN1CCC(N(Cc2ccc(F)cc2F)C(=O)OCc2ccc(OCCCF)cc2)CC1.O=C(O)C(F)(F)F [Compound 27, 4-(3-fluoropropoxy)benzyl (2,4-difluorobenzyl)(1-methylpiperidin-4-yl)carbamate; trifluoroacetic acid] | 9.8 | –
CC(C)COc1ccc(CC(=O)N(Cc2ccc(Cl)cc2F)C2CCN(C)CC2)cc1.O=C(O)C(F)(F)F [Compound 31, N-[(4-chloro-2-fluorophenyl)methyl]-N-(1-methylpiperidin-4-yl)-2-[4-(2-methylpropoxy)phenyl]acetamide; trifluoroacetic acid] | 7.3 | –
CC(C)Oc1ccc(COC(=O)N(Cc2ccc(F)cc2C(F)(F)F)C2CCN(C)CC2)cc1 [Compound 81] | – | 2000 µM
CC(C)COc1ccc(CC(=O)N(Cc2ccc(C(F)(F)F)cc2F)C2CCN(C)CC2)cc1.O=C(O)C(F)(F)F [Compound 69] | 7.7 | –
CC(C)Oc1ccc(COC(=O)N(Cc2ccc(F)cc2)[C@H]2CCN3CCC[C@H]3C2)cc1 [Compound 18, [4-(propan-2-yloxy)phenyl]methyl N-[(7S,8aS)-octahydroindolizin-7-yl]-N-[(4-fluorophenyl)methyl]carbamate] | – | 1.58e-05 µM
CC(C)COc1ccc(CC(=O)N(Cc2ccc(Cl)cc2C(F)(F)F)C2CCN(C)CC2)cc1 [Compound 50, N-{[4-chloro-2-(trifluoromethyl)phenyl]methyl}-N-(1-methylpiperidin-4-yl)-2-[4-(2-methylpropoxy)phenyl]acetamide; trifluoroacetic acid] | – | 200 µM
COc1cc(F)c(CN(C(=O)Cc2ccc(OCC(C)C)cc2)C2CCN(C)CC2)c(F)c1.O=C(O)C(F)(F)F [Compound 33, N-[(2,6-difluoro-4-methoxyphenyl)methyl]-N-(1-methylpiperidin-4-yl)-2-[4-(2-methylpropoxy)phenyl]acetamide; trifluoroacetic acid] | 7.5 | –
CC(C)COc1ccc(COC(=O)N(Cc2ccc(F)cc2)[C@H]2CCNC[C@H]2F)cc1 (racemic) [5a/5b, [4-(2-methylpropoxy)phenyl]methyl N-[(4-fluorophenyl)methyl]-N-[(3R,4S)-3-fluoropiperidin-4-yl]carbamate (5a) and [4-(2-methylpropoxy)phenyl]methyl N-[(4-fluorophenyl)methyl]-N-[(3S,4R)-3-fluoropiperidin-4-yl]carbamate (5b)] | – | 0.000251 µM
CN1CCC(N(Cc2ccc(F)cc2F)C(=O)OCc2ccc(OC(C)(C)C)cc2)CC1.O=C(O)C(F)(F)F [Compound 72] | 10.0 | –
CC(C)COc1ccc(CCOC(=O)N(Cc2ccc(F)cc2)[C@H]2CCNC[C@H]2F)cc1 (racemic) [9a/9b, 2-[4-(2-methylpropoxy)phenyl]ethyl N-[(4-fluorophenyl)methyl]-N-[(3R,4S)-3-fluoropiperidin-4-yl]carbamate; trifluoroacetic acid (9a) and 2-[4-(2-methylpropoxy)phenyl]ethyl N-[(4-fluorophenyl)methyl]-N-[(3S,4R)-3-fluoropiperidin-4-yl]carbamate; trifluoroacetic acid (9b)] | – | 0.0631 µM
CC(C)Oc1ccc(COC(=O)N(Cc2ccc(F)cc2)[C@H]2CCNC[C@H]2F)cc1 (racemic) [3a/3b, [4-(propan-2-yloxy)phenyl]methyl N-[(4-fluorophenyl)methyl]-N-[(3R,4S)-3-fluoropiperidin-4-yl]carbamate (3a) and [4-(propan-2-yloxy)phenyl]methyl N-[(4-fluorophenyl)methyl]-N-[(3S,4R)-3-fluoropiperidin-4-yl]carbamate (3b)] | – | 0.0001 µM

same assay, conditions: R-SAT, transfected NIH3T3 cells; guidance: high affinity pKi≥8.4, moderate affinity pKi≥7.7

SMILES | 5-HT2a pKi
CC(C)COc1ccc(CC(=O)N(Cc2ccc(Cl)cc2Cl)C2CCN(C)CC2)cc1.O=C(O)C(F)(F)F [Compound 59, N-[(2,4-dichlorophenyl)methyl]-N-(1-methylpiperidin-4-yl)-2-[4-(2-methylpropoxy)phenyl]acetamide; trifluoroacetic acid] | 6.6
CC(C)Oc1ccc(COC(=O)N(Cc2ccc(F)cc2Cl)C2CCN(C)CC2)cc1 [Compound 63, [4-(propan-2-yloxy)phenyl]methyl N-[(2-chloro-4-fluorophenyl)-methyl]-N-(1-methylpiperidin-4-yl)carbamate] | 8.4
CC(C)Oc1ccc(COC(=O)N(Cc2ccc(F)cc2)C2CCN(C)CC2)cc1 [Compound 12, [4-(propan-2-yloxy)phenyl]methyl N-[(4-fluorophenyl)methyl]-N-(1-methylpiperidin-4-yl)carbamate] | 9.6
CC(C)Oc1ccc(COC(=O)N(Cc2c(F)ccc(F)c2F)C2CCN(C)CC2)cc1 [Compound 66, [4-(propan-2-yloxy)phenyl]methyl N-(1-methylpiperidin-4-yl)-N-[(2,3,6-trifluorophenyl)methyl]carbamate] | 8.4
COc1ccc(CSC(=O)N(Cc2ccc(F)cc2F)C2CCN(C)CC2)cc1 [Compound 16, N-[(2,4-difluorophenyl)methyl]-N-(1-methylpiperidin-4-yl){[(4-methoxyphenyl)methyl]sulfanyl}formamide] | 7.6
Cc1cc(F)ccc1CN(C(=O)Cc1ccc(OCC(C)C)cc1)C1CCN(C)CC1.O=C(O)C(F)(F)F [Compound 52, N-[(4-fluoro-2-methylphenyl)methyl]-N-(1-methylpiperidin-4-yl)-2-[4-(2-methylpropoxy)phenyl]acetamide; trifluoroacetic acid] | 6.7
CC(C)COc1ccc(COC(=O)N(Cc2ccc(Cl)cc2Cl)C2CCN(C)CC2)cc1 [Compound 64, [4-(2-methylpropoxy)phenyl]methyl N-[(2,4=dichlorophenyl)methyl]-N-(1-methylpiperidin-4-yl)carbamate] | 8.0
CC(C)Oc1ccc(C(OC(=O)N(Cc2ccc(F)cc2)C2CCN(C)CC2)C(F)(F)F)cc1 (centres unmarked) [Compound 17, 2,2,2-trifluoro-1-[4-(propan-2-yloxy)phenyl]ethyl N-[(4-fluorophenyl)methyl]-N-(1-methylpiperidin-4-yl)carbamate] | 7.5
CC(C)Oc1ccc(COC(=O)N(Cc2ccc(Cl)cc2)C2CCN(C)CC2)cc1 [Compound 1, [4-(propan-2-yloxy)phenyl]methyl N-[(4-chlorophenyl)methyl]-N-(1-methylpiperidin-4-yl)carbamate] | 9.7
COc1ccc(CN(C(=O)Cc2ccc(OCC(C)C)cc2)C2CCN(C)CC2)c(F)c1 [Compound 47, N-[(2-fluoro-4-methoxyphenyl)methyl]-N-(1-methylpiperidin-4-yl)-2-[4-(2-methylpropoxy)phenyl]acetamide] | 8.1
CN1CCC(N(Cc2ccc(F)cc2F)C(=O)OCc2ccc(OCC(C)(C)O)cc2)CC1 [Compound 29, 4-(2-hydroxy-2-methylpropoxy)benzyl (2,4-difluorobenzyl)(1-methylpiperidin-4-yl)carbamate] | 10.2
CC(C)COc1ccc(CC(=O)N(Cc2ccc(F)cc2)C2CCN(C)CC2)cc1F.O=C(O)C(F)(F)F [Compound 21, 2-[3-fluoro-4-(2-methylpropoxy)phenyl]-N-[(4-fluorophenyl)methyl]-N-(1-methylpiperidin-4-yl)acetamide; trifluoroacetic acid] | 8.6
COc1cc(CN(C(=O)OCc2ccc(OC(C)C)cc2)C2CCN(C)CC2)ccc1Cl.O=C(O)C(F)(F)F [Compound 75] | 6.8
CC(C)COc1ccc(COC(=O)N(Cc2ccc(F)cc2)C2CCN(C)CC2)cc1 [Compound 2, [4-(2-methylpropoxy)phenyl]methyl N-[(4-fluorophenyl)methyl]-N-(1-methylpiperidin-4-yl)carbamate] | 9.9
CN1CCC(N(Cc2ccc(F)cc2F)C(=O)OCc2ccc(OC3CC3)cc2)CC1 [Compound 30, 4-cyclopropoxybenzyl (2,4-difluorobenzyl)(1-methylpiperidin-4-yl)carbamate] | 10.5
CC(C)COc1ccc(COC(=O)N(Cc2ccc(F)cc2O)C2CCN(C)CC2)cc1 [Compound 82, [4-(2-methylpropoxy)phenyl]methyl N-[(4-fluoro-2-hydroxyphenyl)methyl]-N-(1-methylpiperidin-4-yl)carbamate] | 7.8
CC(C)Oc1ccc(/C=C/C(=O)N(Cc2ccc(F)cc2F)C2CCN(C)CC2)cc1 [Compound 48, (2E)-N-[(2,4-difluorophenyl)methyl]-N-(1-methylpiperidin-4-yl)-3-[4-(propan-2-yloxy)phenyl]prop-2-enamide] | 7.4
CC(C)COc1ccc(COC(=O)N(Cc2ccc(F)cc2Cl)C2CCN(C)CC2)cc1 [Compound 58, [4-(2-methylpropoxy)phenyl]methyl N-[(2-chloro-4-fluorophenyl)methyl]-N-(1-methylpiperidin-4-yl)carbamate] | 8.1
COC(=O)C(C)(C)CN1CCC(N(Cc2ccc(F)cc2F)C(=O)OCc2ccc(OC(C)C)cc2)CC1 [Compound 42, methyl 3-(4-{[(2,4-difluorophenyl)methyl]({[4-(propan-2-yloxy)phenyl]methoxy}carbonyl)amino}piperidin-1-yl)-2,2-dimethylpropanoate] | 8.0
Cc1ccc(F)c(CN(C(=O)OCc2ccc(OC(C)C)cc2)C2CCN(C)CC2)c1F [Compound 65, [4-(propan-2-yloxy)phenyl]methyl N-[(2,6-difluoro-3-methylphenyl)methyl]-N-(1-methylpiperidin-4-yl)carbamate] | 7.7
CC(C)Oc1ccc(COC(=O)N(Cc2c(F)cc(Cl)cc2F)C2CCN(C)CC2)cc1 [Compound 74] | 9.1
